# Experimental data reported in patent US20030059511A1, “Sweetener compositions and uses thereof” (AJINOMOTO CO., INC., priority 1999, published 2003).
# Where a SMILES comes first, the peptide text is derived from it.
# Test: Equations for calculating sweetness intensity and values calculated from them
# Assay type: in vivo, human
# Settings: 20° C., pH 2.8
# Text: For example, when preparing a solution having a intensity of sweetness equivalent to that of 10% sucrose, wherein 80% of the 10% of intensity of sweetness is from the sweetener component A and the residual 20% is from the sweetener component B, the sweetness ratio is A:B=8:2. When the sweetening magnification relative to sucrose varies depending on the composition and the concentration of the sweetener component is varied even if it is a same sweetener component (in this case, an exponential curve can be prepared and used for calculation), the objective weight of the sweetener component can be calculated. For example, if the equation for converting sweetness intensity (the exponential curve) component A is Y=aX^b, and the equation for converting sweetness intensity (the exponential curve)of component B is Y=cX^d, the weight ratio of the components A and B in the ratio A:B=8:2, can be determined using the following calculation, where Y is a concentration equivalent to that of sucrose (PSE %), and X is the sweetener component concentration (g/100 ml):
# Equations for calculating sweetness intensity in the cola drink (pH 2.8, 20° C.) are as follows, wherein Y denotes the concentration equivalent to that of sucrose (g/100 ml) and X denotes the concentration of the sweetener (g/100 ml), respectively.
# With regard to Acesulfame K, the magnification of sweetness intensity was determined according to the following equation for calculating sweetness intensity.
# [Y: concentration equivalent to that of sucrose (g/100ml); X: concentration of Acesulfame K (g/100 ml)]
# By using the equation for calculating sweetness intensity in the cola drink (refer to Example 4) and the equation for calculating sweetness intensity of Aspartame (refer to the monthly Journal “Food Chemical” August, page 35, 1997), the necessary amounts of those were calculated. In case of Aspartame, the values at 20° C., pH2.8 were used.
# The equation for calculating sweetness intensity of derivative 1 in the aqueous solution is as follows.
# Where, the calculation of the sweetness was made by using the equation for calculating sweetness intensity of derivative 4 Y=58775X^1.04. When Y=6.3%, X=0.00015 g/100 ml, When Y=5.1%, X=0.00012 g/100 ml.
# Examples for equations for calculating sweetness intensity in the cola drink (pH2.8, 20° C.) are as follows, and another equations can be prepared in the same manner, wherein Y denotes the concentration equivalent to that of sucrose (g/100 ml) and X denotes the concentration of the sweetener (g/100 ml), respectively.
Compound,"X, concentration of the sweetener when Y=0.5","X, concentration of the sweetener when Y=9"
"COC(=O)[C@H](Cc1ccccc1)NC(=O)[C@@H](N)CC(=O)O [Aspartame, reference compound] (H-Asp-Phe-OMe)",0.00072 g/100 ml,0.04726 g/100 ml

# Same assay, conditions: calculated; block ice of Example 12
row,Compound,magnification of the sweetness intensity at PSE 5%
1,"COC(=O)[C@H](Cc1ccccc1)NC(=O)[C@@H](N)CC(=O)O [Aspartame, reference compound] (H-Asp-Phe-OMe)",130 times

# Same assay, conditions: calculated; sweetener for tabletop use
row,Compound,magnification of sweetness intensity at PSE 0.5%
1,"COC(=O)[C@H](Cc1ccccc1)NC(=O)[C@@H](N)CC(=O)O [Aspartame, reference compound] (H-Asp-Phe-OMe)",360 times
2,"OC[C@@H](O)[C@@H](O)CO [Erythritol, reference compound]",0.75 times

# Same assay, conditions: cola drink, pH 2.8, 20° C.
Compound,"X, concentration of the sweetener when Y=2","X, concentration of the sweetener when Y=5","X, concentration of the sweetener when Y=8"
"COC(=O)[C@H](Cc1ccccc1)NC(=O)[C@@H](N)CC(=O)O [Aspartame, reference compound] (H-Asp-Phe-OMe)",0.0053 g/100 ml,0.0202 g/100 ml,0.0398 g/100 ml

# Test: not given
# Settings: reported in JP-A-8-503206 / JP-B-47-31031; cited from earlier work
row,Compound,"sweetness intensity, times that of sucrose by weight"
1,COC(=O)[C@H](Cc1ccccc1)NC(=O)[C@H](CC(=O)O)NCCC(C)(C)C [Neotame],10000 times
2,"COC(=O)[C@H](Cc1ccccc1)NC(=O)[C@@H](N)CC(=O)O [Aspartame, reference compound] (H-Asp-Phe-OMe)",200 times

# Same assay, conditions: values used for calculation in Example 5; cited from earlier work
row,Compound,magnification used for the sweetness intensity of the another sweetener with a high intense sweetness
1,O=C1NS(=O)(=O)c2ccccc21 [Saccharine],190 times
2,O=C1NS(=O)(=O)c2ccccc21.[Na] [Sodium Saccharine],190 times
3,O=S(=O)([O-])NC1CCCCC1.[Na+] [sodium cyclamate],30 times
4,C[C@@H](NC(=O)[C@@H](N)CC(=O)O)C(=O)NC1C(C)(C)SC1(C)C [Alitame],2000 times
5,CC1(C)[C@@H](O[C@H]2O[C@H](C(=O)[O-])[C@@H](O)[C@H](O)[C@H]2O[C@@H]2O[C@H](C(=O)O)[C@@H](O)[C@H](O)[C@H]2O)CC[C@]2(C)[C@H]3C(=O)C=C4[C@@H]5C[C@@](C)(C(=O)[O-])CC[C@]5(C)CC[C@@]4(C)[C@]3(C)CC[C@@H]12.[Na+].[Na+] [disodium glycyrrhizinate],100 times
6,OC[C@H]1O[C@H](O[C@]2(CCl)O[C@H](CCl)[C@@H](O)[C@@H]2O)[C@H](O)[C@@H](O)[C@H]1Cl [suclarose],400 times
7,C=C1C[C@@]23CC[C@H]4[C@@](C)(CCC[C@@]4(C)C(=O)O[C@@H]4O[C@H](CO)[C@@H](O)[C@H](O)[C@H]4O)[C@@H]2CC[C@]1(O[C@@H]1O[C@H](CO)[C@@H](O)[C@H](O)[C@H]1O[C@@H]1O[C@H](CO)[C@@H](O)[C@H](O)[C@H]1O)C3 [Stevioside],140 times
8,Thaumatin,850 times

# Same assay, conditions: values used for calculation in Example 17; sucrose = 1; cited from earlier work
row,Compound,magnification of sweetness intensity (numerical values in brackets)
1,OC[C@H]1O[C@H](OC[C@H]2OC(O)(CO)[C@@H](O)[C@@H]2O)[C@H](O)[C@@H](O)[C@@H]1O (stereo partly drawn) [paratinose],0.4
2,OC[C@H]1O[C@H](O[C@H]2O[C@H](CO)[C@@H](O)[C@H](O)[C@H]2O)[C@H](O)[C@@H](O)[C@@H]1O [trehalose],0.45
3,OC[C@@H](O)[C@@H](O)[C@H](O)[C@@H](O)CO [sorbitol],0.75
4,OC[C@H]1O[C@H](O[C@H]2[C@H](O)[C@@H](O)[C@H](O)O[C@@H]2CO)[C@H](O)[C@@H](O)[C@@H]1O [malt sugar],0.3
5,OC[C@@H](O)[C@@H](O)[C@H](O)[C@H](O)CO [mannitol],0.6
6,O=C[C@H](O)[C@@H](O)[C@H](O)CO [D-xylose],0.4
7,O=C(CO)[C@@H](O)[C@H](O)[C@H](O)CO [fructose],1.4
8,OC[C@@H](O)[C@@H](O[C@H]1O[C@H](CO)[C@@H](O)[C@H](O)[C@H]1O)[C@H](O)[C@@H](O)CO [maltitol],0.75
9,OC[C@H]1O[C@@H](O[C@H]2[C@H](O)[C@@H](O)C(O)O[C@@H]2CO)[C@H](O)[C@@H](O)[C@H]1O (stereo partly drawn) [lactose],0.2
10,OC[C@@H](O)[C@@H](O[C@@H]1O[C@H](CO)[C@H](O)[C@H](O)[C@H]1O)[C@H](O)[C@@H](O)CO [lactitol],0.35
11,paratinit,0.45
12,isomerized lactose,0.6
13,OC[C@@H](O)[C@H](O)[C@@H](O)CO [xylitol],1
14,"OC[C@@H](O)[C@@H](O)CO [Erythritol, reference compound]",0.75

# Test: Taste characteristics in a cola drink (9 items, similarity index vs cola drink containing 10% sucrose)
# Assay type: in vivo, human
# Settings: non-carbonated cola drink, PSE 10%, vs cola drink with 10% sucrose; smaller = closer to sucrose; 8 panelists
# Procedure: The following experiments were performed in the same way as that of Example 2. Instead of aqueous solution, the cola drink of each of derivatives 1 to 9 having a sweetness level equivalent to that of PSE 10% was prepared, and compared with the cola drink containing 10% sucrose. The evaluation method and so on were same as that of Example 2.
# When carbon dioxide is blown in the cola drink, the carbonated cola drink is prepared, however, the taste of the cola drink can be compared more easily in that without carbon dioxide. Thus the sensory evaluation of non-carbonated cola drink was performed.
# The composition of the cola drink employed was same as that of Example 1.
# The similarity indexes were calculated as those of aqueous solutions. The smaller the similarity index becomes, the better the taste balances, and the closer the taste is to the taste characteristics (quality) of sucrose. The total taste becomes preferable. The similarity indexes of each derivatives are shown as follows. […]
# The following experiments were conducted in the same way as that of Example 15. Instead of aqueous solution, the cola drink of each of derivatives 1 to 9 having a sweetness level equivalent to that of PSE 10% was prepared, and compared with the cola drink containing 10% sucrose. All of the evaluation method and so on were same as those of Example 15.
# When carbon dioxide is blown in the cola drink, the carbonated cola drink is prepared, however, the taste of the cola drink can be compared more easily in that without carbon dioxide. Thus the non-carbonated cola drink was organoleptically evaluated.
# The composition of the cola drink employed was same as that of Example 14.
# The similarity indexes were calculated as those of aqueous solutions. The smaller the similarity index becomes, the better the taste balances, and the closer the taste is to the taste characteristics (quality)of sucrose. The total taste becomes preferable. The similarity indexes of each of the derivatives are shown as follows. […]
row,Compound,Similarity index
1,"CC1=CC(=O)[N-]S(=O)(=O)O1.[K+] [Acesulfame K, reference compound]",~2.0
